Measurements: patent US20130005568A1, “SAFENED HERBICIDAL MIXTURES” (E.I. DU PONT DE NEMOURS AND COMPANY, priority 2011, published 2013)

How the values were obtained:
Chickweed = assay: Test G: turf grass and weed postemergence plant response rating; type: in vivo, Stellaria media (L.) Vill.; details: Compound 1 alone 125 g ai/ha; Test G plants
Source text: (§1) For all of the following biological tests, plant response ratings were based on a 0-100 scale where zero is growth equivalent to that of untreated plants (no plant response) and 100 represents no additional growth occurring after herbicide treatment.
(§2) Plants of the turf grass species: zoysia (Zoysia japonica Steud.), bermudagrass (Cynodon dactylon (L.) Pers.), tall fescue (Festuca arundinacea Shreib.), creeping bentgrass (Agrostis stoonoifera L.), perennial ryegrass (Lolium perenne L.) and hard fescue (Festuca species) were grown under greenhouse conditions for four months. Plants were clipped as needed to plant heights of 5-10 cm. Weeds typically found in turf: annual bluegrass (Poa annua L.), common chickweed (Stellaria media (L.) Vill.), large crabgrass (Digitaria sanguinales (L.) Scop.), dandelion (Taraxacum officinale Weber in Wiggers), goosegrass (Eleusine indica (L.) Gaertn.), henbit (Lamium amplexicaule L.), venice mallow (Hibiscus trionium L.) and purple nutsedge (Cyperus rotundus L.) were also grown under greenhouse conditions so that plants were 5-20 cm tall when they were treated. Herbicide mixtures were formulated, dissolved/dispersed in water containing 0.25% non-ionic surfactant, and sprayed postemergence to these turf grasses and weeds. Treated plants were grown under greenhouse conditions for three weeks before visual evaluations of plant responses were recorded.

[1] = tested on: Pioneer 39K40 hybrid maize; assay: Test A: visual plant response rating, postemergence herbicide treatments alone and with Compound 1; type: in vivo, Zea mays L. spp. indentata Sturt.; details: Compound 1 alone 125 g ai/ha; Test A
Protocol: as §1
(§3) Pioneer 39K40 hybrid maize used in this test (and also Tests B and C) is particularly sensitive to herbicides that inhibit the acetohydroxy acid synthase enzyme. Herbicide mixtures were dissolved/dispersed in a non-phytotoxic liquid carrier and were sprayed postemergence to Pioneer 39K40 hybrid maize (Zea mays L. spp. indentata Sturt.) in the third collar growth stage (extended leaf height was 50-60 cm). Treated plants were grown under greenhouse conditions for two weeks before visual evaluations of plant responses were recorded.

Hard fescue = assay: Test G: turf grass and weed postemergence plant response rating; type: in vivo, Festuca species; details: Compound 1 alone 125 g ai/ha; Test G plants
Source text: as §1, §2

[2] = tested on: Pioneer 39K40 hybrid maize; assay: Test B: visual plant response rating, postemergence herbicides with Compound 1 rate series; type: in vivo, Zea mays L. spp. indentata Sturt.; details: Compound 1 alone 125 g ai/ha; Test B
Protocol: as §1
as §3, with “Herbicide” for “Pioneer 39K40 hybrid maize used in this test (and also Tests B and C) is particularly sensitive to herbicides that inhibit the acetohydroxy acid synthase enzyme. Herbicide”

spring barley = assay: Test E: postemergence plant response rating; type: in vivo, Hordeum vulgare L.; details: Compound 1 alone 125 g ai/ha; Test E plants
Source text: as §1
(§4) Herbicide mixtures were formulated, dissolved/dispersed in water containing 0.25% non-ionic surfactant, sprayed postemergence to the crops: winter wheat (Triticum aestivum L.), spring wheat (Triticum aestivum L.), winter barley (Hordeum vulgare L.) and spring barley (Hordeum vulgare L.), and the weeds: blackgrass (Alopecurus myosuroides Huds.), lambsquarters (Chenopodium album L.) and pigweed (Amaranthus retroflexus L.). Treated plants were grown under greenhouse conditions for two weeks before visual evaluations of plant responses were recorded.

winter barley = assay: Test E: postemergence plant response rating; type: in vivo, Hordeum vulgare L.; details: Compound 1 alone 125 g ai/ha; Test E plants
Source text: as §1, §4

lambsquarters = assay: Test I: postemergence plant response rating; type: in vivo, Chenopodium album L.; details: Compound 1 alone 125 g ai/ha; Test I plants
Source text: as §1
(§5) Herbicide mixtures were formulated, dissolved/dispersed in water containing 0.25% non-ionic surfactant, and sprayed postemergence to the crop: soybean (Glycine max (L.) Merr.) at the 2-leaf growth stage and to weeds: lambsquarters (Chenopodium album L.) and velvetleaf (Abutilon theophrasti Medik.). Weed species were 5-10 cm tall when treated. Treated plants were grown under greenhouse conditions for two weeks before visual evaluations of plant responses were recorded.

Annual bluegrass = assay: Test G: turf grass and weed postemergence plant response rating; type: in vivo, Poa annua L.; details: Compound 1 alone 125 g ai/ha; Test G plants
Source text: as §1, §2

winter wheat [3] = assay: Test E: postemergence plant response rating; type: in vivo, Triticum aestivum L.; details: Compound 1 alone 125 g ai/ha; Test E plants
Source text: as §1, §4

spring wheat = assay: Test E: postemergence plant response rating; type: in vivo, Triticum aestivum L.; details: Compound 1 alone 125 g ai/ha; Test E plants
Source text: as §1, §4

Tall fescue = assay: Test G: turf grass and weed postemergence plant response rating; type: in vivo, Festuca arundinacea Shreib.; details: Compound 1 alone 125 g ai/ha; Test G plants
Source text: as §1, §2

winter wheat [4] = assay: Test F: preemergence plant response rating; type: in vivo, Triticum aestivum L.; details: Compound 1 alone 125 g ai/ha; Test F plants
Source text: as §1
Herbicide mixtures were formulated, dissolved/dispersed in water, and sprayed preemergence to the crops: winter wheat (Triticum aestivum L.) and winter barley (Hordeum vulgare L.), and the weed: blackgrass (Alopecurus myosuroides Huds). Treated plants were grown under greenhouse conditions for three weeks before visual evaluations of plant responses were recorded.

Large crabgrass = assay: Test G: turf grass and weed postemergence plant response rating; type: in vivo, Digitaria sanguinales (L.) Scop.; details: Compound 1 alone 125 g ai/ha; Test G plants
Source text: as §1, §2

sugarcane = assay: Test J: sugarcane postemergence plant response rating, field conditions; type: in vivo, Saccharum officinarum L.; details: Compound 1 alone 140 g ai/ha; Test J
Protocol: as §1
Herbicide mixtures were formulated, dissolved/dispersed in water containing 0.25% non-ionic surfactant, and sprayed postemergence to sugarcane (Saccharum officinarum L.) approximately 20-40 cm tall (extended leaf height). This test was conducted under field conditions. Visual evaluations of plant responses were recorded four weeks after the plants were treated.

velvetleaf = assay: Test I: postemergence plant response rating; type: in vivo, Abutilon theophrasti Medik.; details: Compound 1 alone 125 g ai/ha; Test I plants
Source text: as §1, §5

Measured: injury, Compound 1 alone

Cc1ccccc1S(=O)(=O)NC(N)=O [Compound 1, N-(aminocarbonyl)-2-methylbenzenesulfonamide]
no injury: all assays above
